Earlier results, collected in US7230101B1, “Synthesis of methotrexate-containing heterodimeric molecules” (GPC Biotech, Inc., priority 2002, dated 2007).
pKd: −log10 of the molar value.

Experiments:
[1] = target: Glutathione-S-Transferase; conditions: read-out: Affinity, dissociation constant, known in the art
[2] = target: 6 X His; conditions: dissociation constant, known in the art, read-out: Affinity
[3] = target: Tet-R (Escherichia coli, UniProt P04483); conditions: dissociation constant, known in the art, read-out: Affinity
Chain of Tet-R (P04483 whole entry): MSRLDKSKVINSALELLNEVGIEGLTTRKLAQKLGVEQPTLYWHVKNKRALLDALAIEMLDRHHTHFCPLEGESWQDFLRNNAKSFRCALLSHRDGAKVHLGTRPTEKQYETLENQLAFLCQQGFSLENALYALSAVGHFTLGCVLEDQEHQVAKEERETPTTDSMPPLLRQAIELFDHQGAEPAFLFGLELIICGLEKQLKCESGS

For `N[C@@H](CCC(=O)N[C@@H](CS)C(=O)NCC(=O)O)C(=O)O` [Glutathione], the pKd [1] is listed as 4.62.
For `[Ni]` [Ni], the pKd [2] is listed as 6.10.
In the case of `CN(C)[C@@H]1C(=O)C(C(N)=O)=C(O)[C@@]2(O)C(=O)C3=C(O)c4c(O)cccc4[C@@](C)(O)[C@H]3C[C@@H]12` [Tetracyclin], the pKd [3] is given as 7.62.
